{
  "source": "PubChem BioAssay AID1963844",
  "about": "(Molecular Pharmacology Branch, DTP, NCI, 2024);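 also: spheroids exposed to compounds for one week before readout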;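 as to viability, T/C: percent of DMSO vehicle wells luminescence so 100% = untreated viability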",
  "tested_on": "422866-222-R5-J1-PDC complex spheroid viability",
  "test": "Anticancer human tumor 422866-222-R5-J1-PDC patient-derived pancreatic adenocarcinoma cell line growth inhibition [POLQ]",
  "conditions": "for IC50: curve of first compound; for viability, T/C: stronger effect = lower value",
  "experimental": "Multicellular complex tumor spheroid response to Polymerase (POL) inhibitors (novobiocin, ART-558, RP6685) in combination with a variety of drugs and investigational agents in selected tumor cell lines\nThe POL inhibitors (novobiocin, ART-558, and RP6685) were evaluated both individually and in combination with standard of care and investigational anticancer small molecules within a complex spheroid model of solid tumors. . Complex spheroids include a stromal component modeled by human endothelial cells (HUVEC) and fibroblasts modeled by human mesenchymal stem cells (MSCs). The concentration ranges selected for each drug and investigational agent were based upon clinically achievable concentrations if the clinical Cmax of the agent was known.\nCompounds. The drugs and investigational agents: novobiocin (NSC847541), ART-558 (NSC835418), RP-6685 (NSC848927), peposertib (NSC802822), ceralasertib (NSC780249), elimusertib (NSC800525), camonsertib (NSC841442), AZD-1390 (NSC803789), olaparib (NSC753686), talazoparib (NSC767125), rucaparib (NSC756644), sotorasib (NSC818433), MRTX-1133 (NSC836407), SN-38 (NSC673596), topotecan (NSC609699), epotoside (NSC141540), doxorubicin (NSC123127), gemcitabine (NSC613327), 5-fluorouracil (NSC19893), paclitaxel (NSC125973), vemurafenib (NSC761431), MSA-2 (NSC828583), SN-011 (NSC837082), adavosertib (NSC754352), prexasertib (NSC758257), carboplatin (NSC241240) and oxaliplatin (NSC266046), were obtained from the National Cancer Institute (NCI) Developmental Therapeutics Program Chemical Repository (21). The FDA-approved anticancer drug set is available from the Developmental Therapeutics Program at https://dtp.cancer.gov/organization/dscb/obtaining/. […] The stock solutions were prepared in dimethyl sulfoxide (DMSO, Sigma-Aldrich, St. Louis, MO, cat. D2650), except for the platinum compounds which were prepared in saline (Quality Biological, Gaithersburg, MD, cat. 114-055-101), at 800-fold the tested concentration and stored at -70 degrees C prior to their use. All drugs and investigational agents were tested over a range starting from a high concentration at or near the clinical Cmax and decreasing in half-log increments. If the clinical Cmax for an agent had not been determined, the highest concentration tested was 10 microM, except for SN-38, which was tested at a high concentration of 1 microM.\nCell Culture. All cells were maintained in an incubator at 37 degrees C and 5% CO2 with 95% humidity. The PDC lines were cultured according to standard operating procedures established by the NCI PDMR (https://pdmr.cancer.gov). Table 3 of the manuscript, lists the cell lines along with the number of the three cell types plated to form the mct-spheroids and media for tumor cell growth. After thawing, all PDC lines, except 997537-175-T-J1-PDC and 415267-285-R-J2-PDC, were cultured in Matrigel-coated flasks prepared with a working solution of 1X Ham's F-12 nutrient mix, without supplementation (Thermo Fisher Scientific, cat. 11765054), 100 U/mL penicillin-streptomycin (Thermo Fisher Scientific, cat. 15140122), and 2.5% Matrigel (Corning Inc., Corning, NY, cat. 354248) for the first three passages. The two PDC lines 997537-175-T-J1-PDC and 415267-285-R-J2-PDC were cultured on uncoated flasks. The 857933-349-R-J2-PDC line was cultured in 6C/Colon 1B media containing advanced DMEM/F-12 (Thermo Fisher Scientific, cat. 12634028), 10 mM HEPES (Thermo Fisher Scientific, cat. 15630080), 1X GlutaMAX supplement (Thermo Fisher Scientific, cat. 35050061), 0.1 mg/mL primocin (InvivoGen, San Diego, CA, cat. ant-pm-2), 10% defined fetal bovine serum, heat inactivated (HyClone Laboratories Inc., Logan, UT, cat. SH30070.03HI), 50% L-WRN conditioned media (ATCC, cat. CRL-3276), 1.25 mM N-Acetyl-L-cysteine (Sigma-Aldrich, cat. A9165), 10 mM nicotinamide (Sigma-Aldrich, cat. N0636), 1X B-27 supplement (Thermo Fisher Scientific, cat. 17504044), 1X N-2 supplement (Thermo Fisher Scientific, cat. […]",
  "data": [
    {"smiles": "Nc1ccn(C2OC(CO)C(O)C2(F)F)c(=O)n1", "note": "(configuration not stated) + COC1C(OC(N)=O)C(O)C(Oc2ccc3c(O)c(NC(=O)c4ccc(O)c(CC=C(C)C)c4)c(=O)oc3c2C)OC1(C)C", "values": [
      {"measurement": "IC50", "setting": "second compound 0.0316 µM", "value": 110, "unit": "nM"},
      {"measurement": "IC50", "setting": "second compound 0.1 µM", "value": 94, "unit": "nM"},
      {"measurement": "IC50", "setting": "second compound 0.316 µM", "value": 105, "unit": "nM"},
      {"measurement": "IC50", "setting": "second compound 1 µM", "value": 74.6, "unit": "nM"},
      {"measurement": "IC50", "setting": "second compound 3.16 µM", "value": 139, "unit": "nM"},
      {"measurement": "IC50", "setting": "second compound 10 µM", "value": 67.4, "unit": "nM"},
      {"measurement": "viability, T/C", "setting": "second compound 0.0316 µM, first compound 0.0316 µM", "value": 73.5, "unit": "%"},
      {"measurement": "viability, T/C", "setting": "second compound 0.0316 µM, first compound 0.1 µM", "value": 49.9, "unit": "%"},
      {"measurement": "viability, T/C", "setting": "second compound 0.0316 µM, first compound 0.316 µM", "value": 40.9, "unit": "%"},
      {"measurement": "viability, T/C", "setting": "second compound 0.0316 µM, first compound 1 µM", "value": 33.1, "unit": "%"},
      {"measurement": "viability, T/C", "setting": "second compound 0.0316 µM, first compound 3.16 µM", "value": 28, "unit": "%"},
      {"measurement": "viability, T/C", "setting": "second compound 0.0316 µM, first compound 10 µM", "value": 32, "unit": "%"},
      {"measurement": "viability, T/C", "setting": "second compound 0.1 µM, first compound 0.0316 µM", "value": 75.6, "unit": "%"},
      {"measurement": "viability, T/C", "setting": "second compound 0.1 µM, first compound 0.1 µM", "value": 47.7, "unit": "%"},
      {"measurement": "viability, T/C", "setting": "second compound 0.1 µM, first compound 0.316 µM", "value": 40.9, "unit": "%"},
      {"measurement": "viability, T/C", "setting": "second compound 0.1 µM, first compound 1 µM", "value": 33.7, "unit": "%"},
      {"measurement": "viability, T/C", "setting": "second compound 0.1 µM, first compound 3.16 µM", "value": 32.6, "unit": "%"},
      {"measurement": "viability, T/C", "setting": "second compound 0.1 µM, first compound 10 µM", "value": 36.2, "unit": "%"},
      {"measurement": "viability, T/C", "setting": "second compound 0.316 µM, first compound 0.0316 µM", "value": 74, "unit": "%"},
      {"measurement": "viability, T/C", "setting": "second compound 0.316 µM, first compound 0.1 µM", "value": 48.2, "unit": "%"},
      {"measurement": "viability, T/C", "setting": "second compound 0.316 µM, first compound 0.316 µM", "value": 42.5, "unit": "%"},
      {"measurement": "viability, T/C", "setting": "second compound 0.316 µM, first compound 1 µM", "value": 36.1, "unit": "%"},
      {"measurement": "viability, T/C", "setting": "second compound 0.316 µM, first compound 3.16 µM", "value": 31.7, "unit": "%"},
      {"measurement": "viability, T/C", "setting": "second compound 0.316 µM, first compound 10 µM", "value": 33.4, "unit": "%"},
      {"measurement": "viability, T/C", "setting": "second compound 1 µM, first compound 0.0316 µM", "value": 67.3, "unit": "%"},
      {"measurement": "viability, T/C", "setting": "second compound 1 µM, first compound 0.1 µM", "value": 43.1, "unit": "%"},
      {"measurement": "viability, T/C", "setting": "second compound 1 µM, first compound 0.316 µM", "value": 41, "unit": "%"},
      {"measurement": "viability, T/C", "setting": "second compound 1 µM, first compound 1 µM", "value": 36.1, "unit": "%"},
      {"measurement": "viability, T/C", "setting": "second compound 1 µM, first compound 3.16 µM", "value": 38.4, "unit": "%"},
      {"measurement": "viability, T/C", "setting": "second compound 1 µM, first compound 10 µM", "value": 34.3, "unit": "%"},
      {"measurement": "viability, T/C", "setting": "second compound 3.16 µM, first compound 0.0316 µM", "value": 61.5, "unit": "%"},
      {"measurement": "viability, T/C", "setting": "second compound 3.16 µM, first compound 0.1 µM", "value": 54.5, "unit": "%"},
      {"measurement": "viability, T/C", "setting": "second compound 3.16 µM, first compound 0.316 µM", "value": 38.8, "unit": "%"},
      {"measurement": "viability, T/C", "setting": "second compound 3.16 µM, first compound 1 µM", "value": 37.2, "unit": "%"},
      {"measurement": "viability, T/C", "setting": "second compound 3.16 µM, first compound 3.16 µM", "value": 34.5, "unit": "%"},
      {"measurement": "viability, T/C", "setting": "second compound 3.16 µM, first compound 10 µM", "value": 38.6, "unit": "%"},
      {"measurement": "viability, T/C", "setting": "second compound 10 µM, first compound 0.0316 µM", "value": 62.7, "unit": "%"},
      {"measurement": "viability, T/C", "setting": "second compound 10 µM, first compound 0.1 µM", "value": 43.7, "unit": "%"},
      {"measurement": "viability, T/C", "setting": "second compound 10 µM, first compound 0.316 µM", "value": 37.5, "unit": "%"},
      {"measurement": "viability, T/C", "setting": "second compound 10 µM, first compound 1 µM", "value": 35.7, "unit": "%"},
      {"measurement": "viability, T/C", "setting": "second compound 10 µM, first compound 3.16 µM", "value": 39, "unit": "%"},
      {"measurement": "viability, T/C", "setting": "second compound 10 µM, first compound 10 µM", "value": 35.4, "unit": "%"}
    ]}
  ]
}
